Experimental data from US12162858B2, “Quinoline derivatives as inhibitors of AXL/MER RTK and CSF1R” (QURIENT CO., LTD., priority 2018, dated 2024).

target: CSF1R (Homo sapiens, UniProt P07333); experiment: Cellular CSF1R inhibition ELISA (p-CSF1R, M-CSF-induced) using THP-1 cells; type: cell-based; design: THP-1 cells act as a model for human monocytes; endogenous in cells; host or cells: THP-1
Description: The normal proto-oncogene c-fms encodes the macrophage growth factor (M-CSF, also known as CSF1) receptor involved in growth, survival, and differentiation along the monocyte-macrophage lineage. THP-1 cells act as a model for human monocytes. It confirms that an increased phosphorylation of CSF1R (p-CSF1R) can be observed, when induced by CSF1R ligand, CSF1.
The THP-1 cells should be maintained from 5×10^5 to 1×10^6 cells/ml in the cell culture flask. After centrifugation, the supernatant is aspirated. The cell pellet is re-suspended with pre-warmed growth medium (RPMI1640, 10% FBS, 0.05 mM 2-Mercaptoethanol) and cells are separated by pipetting 6 times up and down with a 10 ml serological pipette. The cell suspension has to be diluted to a final concentration of 2×10^5 cells per 80 μl with pre-warmed growth medium. 80 μl of cell suspension is added to all wells of plates. Cell-plates are incubated at 37° C./5% CO2. Dissolve compound in 100% DMSO to make 10 mM stock solutions (Aliquots stored in the Nitrogen Cabinet). Dilute 10 mM compounds solutions for 2-fold in 100% DMSO to get 5 mM solutions (10 μl+10 μl DMSO), and then make a 3-fold serial dilution (10 μl+20 μl DMSO) for 10 doses. For reference compounds: Dilute 10 mM compounds solutions for 20-fold in 100% DMSO to get 0.5 mM solutions (2 μl+38 μl DMSO), and then make a 3-fold serial dilution (10 μl+20 μl DMSO) for 10 doses. Transfer 2 μl diluted compounds to 198 μl medium to get solution of 50 μM concentration at top point for compounds and 5 μM for reference compounds. Then transfer 20 μl cpd solution into assay plate (Duplicate wells). The plate is incubated at 37° C./5% CO2 for 24 h. The final concentration of DMSO in all wells is […]. Reconstitute human M-CSF at 50 μg/ml in sterile water. (Aliquots stored in −80° C.). 1:1000 dilute human M-CSF by fresh medium to 50 ng/ml. After 24 h compounds treatment, transfer 25 μl diluted human M-CSF (50 ng/ml) to cell plate according to the plate map. The final concentration of human M-CSF in all wells is 10 ng/ml.
The plates is incubated at 37° C./5% CO2 for 5 min. In the beginning the appropriate amount of lysis buffer complete (100 μL/well) is prepared and stored on ice. After 5 min human M-CSF stimulation, wash plates once with 300 μL ice cold PBS. Then 100 μl lysis buffer is added to each well. The plate is shacked for 40 min at 4° C. Plates can now be stored at −20° C. After equilibrate the micro-well strips at room temperature, break off the required number of micro-wells. Place the micro-wells in the strip holder. Unused micro-wells must be resealed and stored at 4° C. immediately. Add 90 μl of cell lysate to the appropriate well. Seal with tape and press firmly onto top of micro-wells. Incubate the plate for 2 h at 37° C. Gently remove the tape and wash wells 4 times with 1× Wash Buffer, 200 μl each time for each well. Add 100 μl of reconstituted Detection Antibody (green color) to each well. Seal with tape and incubate the plate at 37° C. for 1 h. Repeat wash procedure. Add 100 μl of reconstituted HRP-Linked secondary antibody to each well. Seal with tape and incubate the plate for 30 min at 37° C. Repeat wash procedure. Add 100 μl of TMB Substrate to each well. Seal with tape and incubate the plate for 10 min at 37° C. or 30 min at 25° C. Calculations and Formulas: The following calculations and formulas are used for data analysis using XL Fit software: The curve fitting was made using the Sigmoidal Dose-Response Model (Fit model, 205).

Sequence of CSF1R (P07333 20-972): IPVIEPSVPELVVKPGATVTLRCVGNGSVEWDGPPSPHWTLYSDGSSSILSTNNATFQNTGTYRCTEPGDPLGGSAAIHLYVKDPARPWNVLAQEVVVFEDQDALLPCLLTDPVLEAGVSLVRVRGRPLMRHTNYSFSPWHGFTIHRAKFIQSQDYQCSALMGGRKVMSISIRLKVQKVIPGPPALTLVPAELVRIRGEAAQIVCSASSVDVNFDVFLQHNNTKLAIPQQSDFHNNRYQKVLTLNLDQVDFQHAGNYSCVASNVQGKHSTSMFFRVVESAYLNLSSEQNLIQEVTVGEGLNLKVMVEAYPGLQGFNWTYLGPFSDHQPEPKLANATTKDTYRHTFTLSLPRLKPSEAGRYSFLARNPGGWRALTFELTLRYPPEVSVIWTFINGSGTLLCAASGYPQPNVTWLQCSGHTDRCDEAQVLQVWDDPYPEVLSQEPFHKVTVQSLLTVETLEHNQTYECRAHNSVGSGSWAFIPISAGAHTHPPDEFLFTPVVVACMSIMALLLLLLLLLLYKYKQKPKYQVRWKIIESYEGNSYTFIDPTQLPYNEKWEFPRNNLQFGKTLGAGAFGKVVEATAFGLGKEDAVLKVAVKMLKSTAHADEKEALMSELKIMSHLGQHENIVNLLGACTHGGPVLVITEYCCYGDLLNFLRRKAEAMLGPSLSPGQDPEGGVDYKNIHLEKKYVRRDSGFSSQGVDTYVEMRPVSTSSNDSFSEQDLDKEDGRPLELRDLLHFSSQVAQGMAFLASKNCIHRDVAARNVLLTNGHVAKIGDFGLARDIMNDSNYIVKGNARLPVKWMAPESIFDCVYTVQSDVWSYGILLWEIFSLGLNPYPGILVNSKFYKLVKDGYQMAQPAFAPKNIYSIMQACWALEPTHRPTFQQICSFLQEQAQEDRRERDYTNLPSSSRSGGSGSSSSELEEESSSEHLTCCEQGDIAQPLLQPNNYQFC

Row | Structure (SMILES) | IC50 [nM]
1 | COc1cc2nccc(Oc3ccc(NC(=O)c4nn(CC(C)O)cc4OCC(F)(F)F)cn3)c2cc1OC (stereo not drawn) [Compound 136] | ≥ 1000
2 | CCn1cc(OCC2CCC2)c(C(=O)Nc2ccc(Oc3ccnc4cc(OC)c(OC)cc34)cn2)n1 [Compound 8] | < 500
3 | COc1cc2nccc(Oc3ccc(NC(=O)c4nn(CCN(C)C)cc4OCC(F)(F)F)nc3)c2cc1OC [Compound 9] | < 500
4 | CCCn1cc(OCC(F)(F)F)c(C(=O)Nc2ccc(Oc3ccnc4cc(OC)c(OC)cc34)c(C(F)(F)F)c2)n1 [Compound 114] | ≥ 1000
5 | COCCOc1cn(CC(C)O)nc1C(=O)Nc1ccc(Oc2ccnc3cc(OC)c(OC)cc23)cn1 (stereo not drawn) [Compound 150] | ≥ 1000
6 | COc1cc2nccc(Oc3ccc(NC(=O)c4n[nH]cc4OCC(F)(F)F)nc3)c2cc1OC [Compound 16] | < 500
7 | CCCn1cc(OCCNC)c(C(=O)Nc2ccc(Oc3ccnc4cc(OC)c(OC)cc34)cn2)n1 [Compound 140] | ≥ 1000
8 | CCCn1cc(OCC(F)(F)F)c(C(=O)Nc2ccc(Oc3ccnc4cc(OC)c(OC)cc34)cn2)n1 [Compound 7] | < 500
9 | CNCCn1cc(OCC(F)(F)F)c(C(=O)Nc2ccc(Oc3ccnc4cc(OC)c(OC)cc34)nc2)n1 [Compound 137] | ≥ 1000
10 | COc1cc2nccc(Oc3ccc(NC(=O)c4nn(CC(C)O)cc4OCC4CCC4)nc3)c2cc1OC (stereo not drawn) [Compound 163] | 500 to 1000
11 | COc1cc2nccc(Oc3ccc(NC(=O)c4nn(CC(C)C)cc4OCC(F)(F)F)cn3)c2cc1OC [Compound 103] | ≥ 1000
12 | COc1cc2nccc(Oc3ccc(NC(=O)c4nn(C5CC5)cc4OCC4COC4)nc3)c2cc1OC [Compound 143] | < 500
13 | COc1cc2nccc(Oc3ccc(NC(=O)c4nn(CCN)cc4OCC(F)(F)F)cn3)c2cc1OC [Compound 135] | ≥ 1000
14 | CNCCn1cc(OCC(F)(F)F)c(C(=O)Nc2ccc(Oc3ccnc4cc(OC)c(OC)cc34)cc2)n1 [Compound 119] | ≥ 1000
15 | COc1cc2nccc(Oc3ccc(NC(=O)c4nn(C5CC5)cc4OCC4CNC4)nc3)c2cc1OC [Compound 144] | ≥ 1000

The remaining lines, values ahead:

Row | IC50 [nM] | Structure (SMILES)
16 | 500 to 1000 | COc1cc2nccc(Oc3ccc(NC(=O)c4nn(C5CC5)cc4OCC(F)(F)F)nn3)c2cc1OC [Compound 112]
17 | ≥ 1000 | COc1cc2nccc(Oc3ccc(NC(=O)c4nn(C5CCOC5)cc4OCC(F)(F)F)cn3)c2cc1OC (stereo not drawn) [Compound 138]
18 | ≥ 1000 | COc1cc2nccc(Oc3ccc(NC(=O)c4nn(C5CCNC5)cc4OCC(F)(F)F)cn3)c2cc1OC (stereo not drawn) [Compound 132]
19 | < 500 | COc1cc2nccc(Oc3ccc(NC(=O)c4nn(C5CCCC5)cc4OCC(F)(F)F)nn3)c2cc1OC [Compound 121]
20 | < 500 | COc1cc2nccc(Oc3ccc(NC(=O)c4nn(C5CCOC5)cc4OCC(F)(F)F)nn3)c2cc1OC (stereo not drawn) [Compound 128]
21 | 500 to 1000 | COc1cc2nccc(Oc3ccc(NC(=O)c4nn(C5CCN(C)C5)cc4OCC(F)(F)F)nn3)c2cc1OC (stereo not drawn) [Compound 157]
22 | < 500 | COc1cc2nccc(Oc3ccc(NC(=O)c4nn(CCOC5CC5)cc4OCC(F)(F)F)nc3)c2cc1OC [Compound 153]
23 | ≥ 1000 | COc1cc2nccc(Oc3ccc(NC(=O)c4nn(C5CCN(C)C5)cc4OCC(F)(F)F)cc3C)c2cc1OC (stereo not drawn) [Compound 98]
24 | < 500 | COc1cc2nccc(Oc3ccc(NC(=O)c4nn(C5CC5)cc4NCC(F)(F)F)nc3)c2cc1OC [Compound 145]
25 | ≥ 1000 | COc1cc2nccc(Oc3ccc(NC(=O)c4nn(C5CC5)cc4NCCC(F)(F)F)nn3)c2cc1OC [Compound 146]
26 | 500 to 1000 | COc1cc2nccc(Oc3ccc(NC(=O)c4nn(CCOC5CC5)cc4OCC(F)(F)F)nn3)c2cc1OC [Compound 120]
27 | 500 to 1000 | COc1cc2nccc(Oc3ccc(NC(=O)c4nn(C5CC5)cc4OC(C)C)nn3)c2cc1OC [Compound 147]
